Results reported in PubChem BioAssay (NCI).
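Test compounds were applied to cells in 96-well plates for 48 hours at 5 doses. The concentration for 50% growth inhibition is given as GI50. TGI: concentration producing complete growth inhibition.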

How the values were obtained:
Assay in all cases: growth of human tumour cells (NCI), 48 h
[1] = system: EKVX NSCLC
[2] = system: HOP-92 NSCLC
[3] = system: HT29 colon
[4] = system: NCI-H460 lung
[5] = system: OVCAR-3 ovarian
[6] = system: RPMI-8226 leukemia
[7] = system: U251 CNS
[8] = system: UO-31 renal
[9] = system: MDA-N
[10] = system: TK-10 renal

| SMILES | TGI [1] [µM] | TGI [2] [µM] | TGI [3] [µM] | TGI [4] [µM] | TGI [5] [µM] | TGI [6] [µM] | TGI [7] [µM] | TGI [8] [µM] | TGI [9] [µM] | TGI [10] [µM] | GI50 [1] [nM] | GI50 [2] [µM] | GI50 [3] [nM] | GI50 [4] [nM] | GI50 [5] [nM] | GI50 [6] [nM] | GI50 [10] [nM] | GI50 [7] [nM] | GI50 [8] [µM] |
| --- | --- | --- | --- | --- | --- | --- | --- | --- | --- | --- | --- | --- | --- | --- | --- | --- | --- | --- | --- |
| COc1cc2c(cc1Oc1c(Oc3c(O)c(OC)cc4c3C(CC(C)C)N(C)CC4)c(OC)cc3c1C(CC(C)C)N(C)CC3)C(CC(C)C)N(C)CC2 (stereo not drawn) | 2.18 | 7.87 | 5.61 | 1.69 | 11.4 | 10.4 | 6.22 | 11.9 | – | – | – | – | – | – | – | – | – | – | – |
| CC(=O)C(C(C)=O)[C@@H]1OC(C)(C)O[C@@H]1[C@H]1COC(C)(C)O1 | 79.1 | > 100 | > 100 | > 100 | > 100 | > 100 | > 100 | > 100 | 70.1 | > 100 | – | – | – | – | – | – | – | – | – |
| Cc1ccc(N=Nc2c(O)ccc3cc(S(=O)(=O)O)ccc23)cc1 | > 100 | > 100 | > 100 | > 100 | > 100 | > 100 | > 100 | > 100 | > 100 | > 100 | – | – | – | – | – | – | – | – | – |
| Cc1cc(OCCOCCC(F)(F)P(=O)(O)O)ccc1CCc1cnc2c(N)nc3cc(CCC(=O)O)ccc3c2c1 | > 100 | > 100 | > 100 | > 100 | > 100 | > 100 | > 100 | > 100 | – | > 100 | > 100000 | 6.61 | > 100000 | > 100000 | > 100000 | > 100000 | > 100000 | > 100000 | > 100 |
| COC(=O)c1cn(CC(O)CCl)nn1 (stereo not drawn) | > 100 | > 100 | > 100 | > 100 | > 100 | > 100 | > 100 | > 100 | > 100 | > 100 | – | – | – | – | – | – | – | – | – |
| S=c1nc(N/N=C/c2cccs2)c2cn[nH]c2[nH]1 | > 100 | > 100 | > 100 | 13.1 | 34.1 | 62.6 | 77.6 | > 100 | – | 49.3 | – | – | – | – | – | – | – | – | – |
| CN1Cc2cc(O)c(O)cc2C(O)C1 (stereo not drawn) | > 100 | > 100 | > 100 | > 100 | > 100 | > 100 | > 100 | > 100 | > 100 | > 100 | – | – | – | – | – | – | – | – | – |
| COC(=O)CNC(=O)CCC(C)[C@H]1CCC2C3C(C[C@H](OC(C)=O)[C@@]21C)[C@@]1(C)CCC2(C[C@H]1C[C@H]3OC(C)=O)OOC1(CC[C@]3(C)C4C[C@H](OC(C)=O)[C@@]5(C)C(CC[C@@H]5C(C)CCC(=O)NCC(=O)OC)C4[C@H](OC(C)=O)C[C@@H]3C1)OO2 (stereo partly drawn) | 1.78 | 2.64 | 2.37 | 26.4 | 15.9 | – | 14 | 1.51 | > 50 | 2.55 | – | – | – | – | – | – | – | – | – |
| COC1=C(C)C(=O)C2=C(C1=O)C1C3CC4=C(C(=O)C(OC)=C(C)C4=O)C(CNC(=O)C(C)O)N3C(C#N)C(C2)N1C (stereo not drawn) | 0.108 | < 0.01 | < 0.01 | 0.179 | < 0.01 | < 0.215 | – | 0.731 | < 0.0107 | 0.579 | – | – | – | – | – | – | – | – | – |
| C=CC(C)C1(CCCOCc2ccccc2)C(=S)N2CCC3(CC24CCCC14)OCCO3 (stereo not drawn) | > 100 | – | > 100 | > 100 | > 100 | 10.4 | > 100 | > 100 | – | > 100 | – | – | – | – | – | – | – | – | – |
| CN(O)C(=O)CCCC(=O)NCC(C)(C)CNC(=O)CCCC(=O)N(C)O | > 100 | > 100 | > 100 | > 100 | > 100 | > 100 | > 100 | > 100 | > 100 | > 100 | – | – | – | – | – | – | – | – | – |
| Cc1[nH]c2ccccc2c1/C=N/NC(=O)c1cccc(I)c1 | 41.9 | 51.4 | 63.3 | 36.1 | 41.2 | 48.4 | 57 | 61.6 | 52.4 | 87.7 | – | – | – | – | – | – | – | – | – |
| COC(=O)[C@]1(c2ccc(N(C)C)cc2OC)C[C@@H]2CCCN(CCc3c1[nH]c1ccccc31)C2 | 52 | 33.4 | 32.8 | 33.7 | 36.4 | 63.2 | 36 | 33.2 | – | – | – | – | – | – | – | – | – | – | – |
| O=P(Nc1ccccc1)(Oc1ccccc1)N(CCCl)CCCl (stereo not drawn) | > 100 | > 100 | > 100 | – | > 100 | – | > 100 | 28.2 | – | > 100 | – | – | – | – | – | – | – | – | – |
| O=C(c1cccnc1)N1N=C(c2ccccc2)CC1(O)c1cc(F)c(Cl)cc1Cl (stereo not drawn) | > 100 | 59.5 | > 100 | 44.7 | 24.5 | 55.6 | 32.4 | > 100 | > 100 | > 100 | – | – | – | – | – | – | – | – | – |
| CCCOP(=O)(OCCC)OC(C(F)(F)F)C(F)(F)F | > 100 | – | > 100 | > 100 | > 100 | > 100 | > 100 | > 100 | > 100 | > 100 | – | – | – | – | – | – | – | – | – |
| O=C(Nc1ccccc1Cl)c1ccc([N+](=O)[O-])cc1 | > 100 | – | > 100 | > 100 | > 100 | > 100 | > 100 | > 100 | – | > 100 | – | – | – | – | – | – | – | – | – |
| O=C(O)/C(=C\c1ccc(O)cc1)c1cccc2ccccc12 | > 100 | > 100 | > 100 | > 100 | > 100 | – | > 100 | > 100 | > 100 | > 100 | – | – | – | – | – | – | – | – | – |
| COc1ccc(-c2ncn(C[Si](C)(C)C)c2-c2ccc(OC)cc2)cc1 | 12.1 | 17.5 | 10.8 | 15.3 | – | 4.57 | 20.7 | 10 | 10.9 | 20 | – | – | – | – | – | – | – | – | – |
| CC(C)C(=O)/C=C/S/C=C/C(=O)C(C)C | 90.9 | – | > 100 | > 100 | 14.9 | – | 70.6 | 62.7 | – | > 100 | – | – | – | – | – | – | – | – | – |
| COc1ccc(NC(C(N)=O)c2cc3cc(Br)ccc3nc2Cl)cc1 (stereo not drawn) | > 100 | 99.7 | > 100 | > 100 | > 100 | > 100 | – | > 100 | > 100 | 37.9 | – | – | – | – | – | – | – | – | – |
| CCCCCCCCCCCCCC[n+]1ccc(C(N)=O)cc1 | 6.71 | – | 4.13 | 8.18 | 5.39 | 3.03 | 1.87 | 24.3 | – | 2.79 | 1980 | – | 1110 | 2580 | 1540 | 731 | 1180 | 538 | 7.65 |
